Test results as given in US11247976B2, “Synthetic ligands that modulate the activity of the RhlR quorum sensing receptor” (Wisconsin Alumni Research Foundation, priority 2016, dated 2022).

How the values were obtained:
[1] = target: T1, RhlR (Pseudomonas aeruginosa, UniProt P54292); test: E. coli RhlR reporter antagonism assay vs 10 μM BHL (JLD271/pJN105R2/pSC11-rhlI*); assay type: cell-based, P. aeruginosa; conditions: for inhibition at 10 µM: read-out: % inhibition (10 μM), compound at 10 μM in the presence of 10 μM BHL; for inhibition at 10 µM / inhibition at 1000 µM: negative = agonism stronger than 10 μM BHL alone; for inhibition at 1000 µM: read-out: % inhibition (1 mM), compound at 1 mM in the presence of 10 μM BHL
T1 construct: expressed in transfected cells; host or cells: E. coli JLD271 (ΔsdiA) with pJN105R2 (arabinose-induced) and pSC11-rhlI*
Experimental: (§1) All media and reagents for bacterial culture were purchased from commercial sources. Bacteria were cultured in Luria-Bertani broth (LB) at 37° C. with shaking at 200 rpm unless otherwise noted. The bacterial reporter strains used for this study were (i) the heterologous E. coli strain JLD271 (ΔsdiA) harboring the RhlR expression plasmid pJN105R2 and the rhlI-lacZ transcriptional fusion reporter pSC11-rhlI*, (ii) the heterologous E. coli strain JLD271 (ΔsdiA) harboring the LasR expression plasmid pJN105L and the […] transcriptional fusion reporter pSC11, and (iii) the P. aeruginosa strain PAO-JP2 (ΔlasrhlI) harboring the rhlI-gfp transcriptional fusion reporter prhlI-LVAgfp. Reporter strains JLD271/pJN105R2/pSC11-rhlI* and JLD271/pJN105L/pSC11 were grown in LB containing 100 μg/mL ampicillin and 10 μg/mL gentamicin. Freezer stocks of bacterial strains were maintained at −80° C. in 1:1 LB:50% glycerol.
To evaluate the modulatory activities of library compounds on RhlR and LasR using E. coli reporters, the strains JLD271/pJN105R2/pSC11-rhlI* and JLD271/pJN105L/pSC11 were used, respectively, as previously described.^38, 51 The following modifications were used in the RhlR agonism reporter assay, non-native compounds (10 μM or 1 mM) were compared to 1 mM BHL as the positive control. Briefly, a subculture was prepared by diluting an overnight culture 1:10 with fresh media containing 100 μg/mL ampicillin and 10 μg/mL gentamicin, and was incubated until it had grown to OD600=0.45. In all assays, L-arabinose was added to a final concentration of 4 mg/mL to induce RhlR expression. For RhlR agonism assays, activities of test compounds were measured relative to 1 mM BHL (the concentration required to induce a maximal level of RhlR activity). […] Activity was measured relative to 10 μM BHL. Inhibition was calculated by subtracting 100% from the relative activity value. Thus, 0% inhibition mimics represents no competitive displacement of 10 μM BHL by a test compound. In all assays, modifications were made to the standard Miller assay protocol to accommodate the use of the chlorophenol red-β-D-galactopyranoside (CPRG) β-galactosidase substrate. After cell lysis, 150 μL of the aqueous layer was transferred from each well of a solvent-resistant 96-well microtiter plate to the wells of a new clear, flat-bottom 96-well microtiter plate. CPRG (4 mg/mL in phosphate-buffered saline) was added to each well in 25 μL volumes. Plates were incubated at 30° C. until the positive control wells developed a red color (approximately 30 min). The amount of processed CPRG substrate was assessed by measuring the absorbance of each well at 570 nm. Enzymatic activity was calculated using the following equation: adjusted Miller units=1000·Abs570/(OD600·t·V),
(§2) where t is the incubation time of substrate with lysate and V is the volume of culture lysed.
The RhlR-modulatory activity of the J library compounds was assessed in a heterologous reporter strain (E. coli JLD271 harboring plasmids pJN105R2 and pSC11-rhlI*) in order to isolate the RhlR receptor from upstream QS regulation (e.g. regulation by LasR). Thus, the extent to which compounds were directly modulating RhlR could be determined. These assays were performed by incubating compound-treated, mid-log phase E. coli reporter cells in 96-well microtiter plates, followed by Miller assay evaluation of ß-galactosidase activity.
RhlR agonism and antagonism screens of each compound were performed initially at 10 μM.

[2] = target: T1, RhlR; test: E. coli RhlR reporter agonism assay (JLD271/pJN105R2/pSC11-rhlI*); assay type: cell-based, P. aeruginosa; conditions: for activation at 10 µM: compound at 10 μM, RhlR activity relative to 1 mM BHL; for RhlR agonist activity in words: single-concentration screen at 10 μM; for Emax: read-out: Maximum Activation (%)
Experimental: as §1
To evaluate the modulatory activities of library compounds on RhlR and LasR using E. coli reporters, the strains JLD271/pJN105R2/pSC11-rhlI* and JLD271/pJN105L/pSC11 were used, respectively, as previously described.^38, 51 The following modifications were used in the RhlR agonism reporter assay, non-native compounds (10 μM or 1 mM) were compared to 1 mM BHL as the positive control. Briefly, a subculture was prepared by diluting an overnight culture 1:10 with fresh media containing 100 μg/mL ampicillin and 10 μg/mL gentamicin, and was incubated until it had grown to OD600=0.45. In all assays, L-arabinose was added to a final concentration of 4 mg/mL to induce RhlR expression. For RhlR agonism assays, activities of test compounds were measured relative to 1 mM BHL (the concentration required to induce a maximal level of RhlR activity). For RhlR antagonism assays, test compounds were competed against a concentration of BHL approximately equal to its EC50 value (10 μM). Activity was measured relative to 10 μM BHL. Inhibition was calculated by subtracting 100% from the relative activity value. Thus, 0% inhibition mimics represents no competitive displacement of 10 μM BHL by a test compound. In all assays, modifications were made to the standard Miller assay protocol to accommodate the use of the chlorophenol red-β-D-galactopyranoside (CPRG) β-galactosidase substrate. After cell lysis, 150 μL of the aqueous layer was transferred from each well of a solvent-resistant 96-well microtiter plate to the wells of a new clear, flat-bottom 96-well microtiter plate. CPRG (4 mg/mL in phosphate-buffered saline) was added to each well in 25 μL volumes. Plates were incubated at 30° C. until the positive control wells developed a red color (approximately 30 min). The amount of processed CPRG substrate was assessed by measuring the absorbance of each well at 570 nm. Enzymatic activity was calculated using the following equation: adjusted Miller units=1000·Abs570/(OD600·t·V),
as §2
Because LuxR-type receptors are often unstable in solution, preventing the use of in vitro assays to directly assess small molecule agonism and antagonism, reporter gene assays represent a standard method for screening small-molecule libraries for LuxR-type receptor modulation. Previously reported strains for this purpose were used in the current study.^38 Synthetic N-butanoyl L-homoserine lactone (BHL), the native ligand of RhlR, was used as the positive control for receptor activation. Commonly, agonists are measured relative to maximum possible receptor activation within a particular assay medium;^40 because the dose-response curve of BHL is distinctly shallow in these RhlR reporters, a high concentration of BHL is required to maximally activate RhlR. In this study, activation of compounds was measured relative to that elicited by 1 mM BHL (the concentration of BHL used causes no aberrant growth effects in the reporter strain). […]

T1 sequence (P54292 whole entry): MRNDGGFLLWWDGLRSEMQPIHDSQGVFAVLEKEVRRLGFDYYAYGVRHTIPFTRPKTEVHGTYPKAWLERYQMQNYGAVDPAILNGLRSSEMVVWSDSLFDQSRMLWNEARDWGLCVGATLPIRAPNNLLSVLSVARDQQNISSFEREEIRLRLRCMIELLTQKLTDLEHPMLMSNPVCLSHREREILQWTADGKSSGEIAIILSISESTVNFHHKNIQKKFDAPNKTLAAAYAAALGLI

Row | Structure (SMILES) | inhibition at 10 µM [1] [%] | inhibition at 1000 µM [1] [%] | activation at 10 µM ([2]; E. coli reporter) [%] | RhlR agonist activity in words ([2]; E. coli reporter) | EC50 [2] [µM] | Emax [2] [%] | RhlR agonist potency in words ([2]; dose-response, E. coli reporter) | RhlR antagonist activity in words ([1]; E. coli reporter vs 10 μM BHL)
1 | CCC(=O)N[C@H]1CCOC1=O [Compound C3-AHL] | -5 | -66 | 25 | comparably less active than their respective counterparts | – | – | – | –
2 | CCCCC(=O)N[C@H]1CCOC1=O [Compound C5-AHL] | -18 | -91 | 53 | comparable RhlR activation to that of BHL | 10.8 | 80 | – | –
3 | C=CCC(=O)N[C@H]1CCOC1=O [Compound J2] | 6 | -110 | 39 | comparably less active than their respective counterparts | – | – | – | –
4 | C=CCCCC(=O)N[C@H]1CCOC1=O [Compound J3] | -4 | -69 | 41 | – | – | – | – | –
5 | C/C=C/CC(=O)N[C@H]1CCOC1=O [Compound J4] | 9 | -47 | 21 | – | – | – | – | –
6 | C/C=C\CC(=O)N[C@H]1CCOC1=O [Compound J5] | -12 | -74 | 52 | activities statistically insignificant from native ligand BHL | 6.93 | 80 | – | –
7 | C#CCCC(=O)N[C@H]1CCOC1=O [Compound J7] | -7 | -83 | 45 | activities statistically insignificant from native ligand BHL | – | – | – | –
8 | C#CCCCC(=O)N[C@H]1CCOC1=O [Compound J8] | -2 | -76 | 34 | – | – | – | – | –
9 | CC(C)C(=O)N[C@H]1CCOC1=O [Compound J17] | -30 | -112 | 62 | comparable RhlR activation to that of BHL | 4.89 | 95 | significantly more potent than BHL | –
10 | CCC(C)C(=O)N[C@H]1CCOC1=O (stereo partly shown) [Compound J19] | -24 | -101 | 55 | comparable RhlR activation to that of BHL | 7.77 | 95 | – | –
11 | CC(C)(C)C(=O)N[C@H]1CCOC1=O [Compound J20] | 0 | 25 | 1 | inactive as agonists | – | – | – | capable of inhibiting RhlR activity to a statistically significant extent
12 | CCC(C)(C)C(=O)N[C@H]1CCOC1=O [Compound J21] | 3 | 7 | 5 | inactive as agonists | – | – | – | –
